In patent publication US7947280B2 (priority 2003, dated 2011):
Several values for one entry are separate records, joined by “and”; a condition that tells them apart may be missing. Identical values can stand only once. Entries after “also recorded” stand apart in the source; their conditions may differ.

Tests used:
C57B1/6 mice = system: C57B1/6 mice
Experimental: Pressure-volume hemodynamics. Pressure-volume hemodynamics were assessed using the Aria System (Millar Instruments, Houston, Tex.). Male C57B1/6 mice aged 8-12 weeks (n=10) were anesthetized with 1-2% isoflurane in oxygen. The internal jugular vein was cannulated with PE tubing and a 10% albumin solution infused at 5 μl/min following a bolus of 150 μl over 5 minutes. After tracheotomy, a 19G cannula was inserted into the trachea and the animal was ventilated at a tidal volume of 200 μl at 100 breaths per minute (Harvard Apparatus, Holliston, Mass.). Mice were warmed throughout the procedure and constantly monitored for depth of anesthesia. Following an incision just dorsal to the xyphoid cartilage, the diaphragm was visualized from below, and after diaphragmatic incision, the left ventricular apex was visualized. The pressure-volume catheter was then inserted along the long axis of the left ventricle, from where it was adjusted to obtain rectangular shaped pressure-volume loops. Appropriate position was verified post mortem (FIG. 1, Panel D). […] Signals from the catheter were digitized using the Powerlab system (ADInstruments, Colorado Springs, Colo.) and stored for offline analysis using the PVAN software (Pressure-volume ANalysis, Millar Instruments, Houston, Tex.).
Data Analysis. Data were analyzed using Student's t statistic (paired) or the repeated measures analysis of variance using the post hoc comparison of Fisher (NCSS 2002). Exact p values are reported for all comparisons.

ApoE-KO mice [1] = test: Atherosclerotic lesion analysis in ApoE-KO mice; assay type: in vivo, mouse; settings: for reduction of total lesion burden: co-infusion of Apelin 2 mg/kg/day with AngII 1.4 mg/kg/day
Experimental: Animals. Mice were maintained in temperature-controlled (20° C. to 22° C.) environment with a 12-hour light-dark cycle. […] All mice were C57BL/6J ApoE-KO male mice (Jackson Laboratories, Bar Harbor, […].) between the ages of 8-12 weeks. […] Animal procedures were carried out in accordance with the Institutional Review Board Guidelines at Stanford University.
Tissue preparation, histology and lesion quantification. Mice were euthanized 28 days following implantation of osmotic mini-pumps. The thoracic cage was removed and the animal perfused with phosphate buffered saline solution (PBS) for 2 minutes. The entire aorta and vein graft were exposed and the periadventitial tissue and scar tissue dissected and removed. Subsequently mice were perfusion fixed in situ with 4% phosphate-buffered paraformaldehyde. In some animals aorta and lung were removed fresh for biochemical assays.
Atherosclerotic Lesion Analysis Atherosclerosis lesion area was determined as described previously. Briefly, the arterial tree was perfused with PBS (pH 7.3) and then perfusion fixed with phosphate-buffered paraformaldehyde (3%, pH 7.3). The heart and full length of the aorta-to-iliac bifurcation was exposed and dissected carefully from any surrounding tissues. Aortas were then opened along the ventral midline and dissected free of the animal and pinned out flat, intimal side up, onto black wax. Aortic images were captured with a digital camera (DMC1) mounted on a Leica MZ6 stereomicroscope and analyzed using Fovea Pro (Reindeer Graphics, Asheville, N.C.). Percent lesion area was calculated as total lesion area divided by total surface area.

ApoE-KO mice [2] = test: Vein graft neointimal hyperplasia model; assay type: in vivo, mouse
Experimental: Animals. Mice were maintained in temperature-controlled (20° C. to 22° C.) environment with a 12-hour light-dark cycle. Sterile water and standard chow diet were available ad libitum. All mice were C57BL/6J ApoE-KO male mice (Jackson Laboratories, Bar Harbor, […].) between the ages of 8-12 weeks. […] Animal procedures were carried out in accordance with the Institutional Review Board Guidelines at Stanford University.

[3] = system: superoxide production in aortic tissue of apoE knockout mice; test: Lucigenin-enhanced chemiluminescence of aortic superoxide; assay type: in vivo, mouse; settings: addition of apelin to AngII
Experimental: Lucigenin-enhanced chemiluminescence. Total aortic superoxide was measured by lucigenin-enhanced chemiluminescence as described previously. Aortas were harvested flushed with Krebs-HEPES buffer, opened longitudinally and divided into halves. Vessels were gassed with 95% oxygen/5% carbon dioxide in warmed Krebs-HEPES buffer for 30 minutes before measurements of chemiluminescence in a luminometer (manufacturer, location) using 20 μmol/L lucigenin. One half of each vessel was incubated in L-NAME (1 mmol/L). After measuring baseline readings for 4 minutes, samples were equilibrated and dark adapted for 5 mins, and chemiluminescence was recorded for 10 minutes. Recordings were performed blinded to the samples identity. Results were expressed as counts per second per milligram of tissue dry weight.

[4] = system: superoxide production in aortic sections; test: Dihydroethidium oxidative fluorescence microtopography; assay type: in vivo, mouse
Experimental: Oxidative fluorescent microtopography. Superoxide was detected in the layers of the vessel wall using fluorescent probe dihydroethidium as described previously. Fresh segments of upper descending thoracic aorta were frozen in OCT compound. […] Molecular Probes). Images were obtained on a confocal microscope (Bio-Rad MRC-1024 laser; filter settings: excitation filter 488 nm; emission filter 550 nm). 2-hydroxyethidium fluorescence was measured from high power (60× mag) images. Endothelium by quantifying fluorescence (intensity×area) on the luminal side of the internal elastic lamina, media between the internal and external elastic lamina, and adventitia outside the external elastic lamina. Quantification was performed using Image Pro Plus software (Media Cybernetics, Silver Springs, Md.). Medial Analysis was performed blind to the samples identity.

[5] = system: NFκB, NFAT, AP-1 and SRE reporter constructs; test: Luciferase reporter assays of AngII nuclear signaling in HEK-293 cells; assay type: cell-based
Text: cDNA Constructs APJ expression construct was purchased from cDNA.org. AT1R construct was obtained from Dr. Marc Caron. AT1R transcript was inserted into a pEGFP-N1 vector (Clonetech). The NF-kB and SRE luciferase reporter constructs were obtained from BD Biosciences.
Cells were immediately lysed.

[6] = system: Erk1/2 phosphorylation in HEK293 cells expressing AT1R; settings: AngII, 5 and 15 minute timepoints
Experimental: Cell Culture, Transfections, and Stimulation Assays HEK293 cells were cultured in Dulbecco's modified Eagle's medium with 10% fetal bovine serum, 10 units/ml penicillin, and 100 μg/ml streptomycin. Transient transfection of the HEK293 cells was carried out using FuGene reagent per manufacturer's protocols in 6 well plates (Roche). […] For ERK phosphorylation, transfected HEK293 cells were serum starved for 3 hours and incubated with the agonist for designated times at 37 C. Cells were immediately lysed.

isolated rat heart = settings: Szokodi et al; cited from earlier work
[7] = system: isolated human saphenous vein; settings: Katugampola et al.; cited from earlier work
[8] = post 100 nM Apelin-12 infused at 5 μl/min for 20 minutes

apelin
Time constants of relaxation (C57B1/6 mice; after apelin infusion): not different | slope and intercept of linear fit of end diastolic pressure-volume relationship (C57B1/6 mice; after apelin infusion): not different | Arterial elastance (C57B1/6 mice; following apelin infusion): did not change significantly | dP/dtmax (C57B1/6 mice; following apelin infusion): did not change | end systolic pressure (C57B1/6 mice; following apelin infusion): reduced | EDV mean (C57B1/6 mice; [8]): 26.2 | Emax (time varying elastance) (C57B1/6 mice; [8]): 12.7±3.1 and 12.7 | HR mean (C57B1/6 mice; [8]): 353 | PRSW intercept mean (C57B1/6 mice; [8]): 11.3 | LV end diastolic volume (C57B1/6 mice; post apelin infusion): 26.2±5.9 RVU | constant k1 of monoexponential fit LVEDP=k1*exp(k2*LVEDV) (C57B1/6 mice; post apelin infusion): 0.111±0.002 | exponential k2 of monoexponential fit LVEDP=k1*exp(k2*LVEDV) (C57B1/6 mice; post apelin infusion): 0.69±0.41 | heart rate (C57B1/6 mice; post apelin infusion, invasive study): 353±33 bpm | reduction in aortic root atherosclerotic burden vs saline treated controls (trend) (ApoE-KO mice [1]; apelin 2 mg/kg/day, 4 weeks): 25% | reduction of total lesion burden (ApoE-KO mice [1]; 4 weeks): mitigated | reduction of total lesion burden (ApoE-KO mice [1]; 4 weeks, listed as Apelin): 75% | progression of atherosclerosis in aortic root (FIG. 17) (ApoE-KO mice [1]; osmotic minipump during high fat diet exposure): do not alter | reduction of mean vessel wall area (ApoE-KO mice [2]; apelin added to AngII treated animals): 34% | reduction of mean vessel wall area vs saline treated controls (ApoE-KO mice [2]; apelin, 4 weeks following vein graft surgery): 42% | AngII stimulated increase in total chemiluminescence [3]: abolished | aortic superoxide production vs AngII alone ([4]; apelin added to AngII treated mice): significantly reduced | Total aortic fluorescence, lower than saline treated controls ([4]; apelin treated mice): 3 fold | NFκB reporter activation stimulated by TNF-α and H2O2 ([5]; apelin treatment): In neither case did apelin diminish transcription; also recorded: not affected | AngII induced increase in reporter transcription ([5]; cells also treated with apelin): abrogated; also recorded: decreased activation | phosphorylation of Erk1/2 [6]: dramatically reduced | EC50, contractility of the isolated rat heart (isolated rat heart): low picomolar range | effect on isolated human saphenous vein [7]: potently contracts
